US20100137170A1, “DUAL USE WELL TREATMENT COMPOSITION” (JACAM CHEMICALS, LLC, priority 2008, published 2010)

Experiment: substitute ingredients in lieu of morpholine in THP/THPS-amino phosophono chelant compositions (crystal deposition)
Format: physicochemical
Settings: ingredients employed alone and in various combinations in THP/THPS-amino phosophono chelant compositions
Source text: During the course of development of the present invention, a number of different ingredients were used in lieu of morpholine in THP/THPS-amino phosophono chelant compositions. None of these substitute materials were successful.

Row | Structure (SMILES) | crystal deposition of product with ingredient used in lieu of morpholine
1 | N [ammonium hydroxide] | prone to crystal deposition
2 | CC(C)O [isopropyl alcohol] | prone to crystal deposition
3 | CO [methyl alcohol] | prone to crystal deposition
4 | [Na+].[OH-] [sodium hydroxide] | prone to crystal deposition

Experiment: accelerated −30° F. storage test (crystal formation)
Format: physicochemical
Settings: 1.5% by volume in the Example composition
Procedure: Additional morpholine derivatives were also tested in lieu of the morpholine in the above table, at the same amount (1.5% by volume) and by the accelerated −30° F. storage test. These derivatives were N-methylmorpholine, N-ethylmorpholine, N-methylmorpholine oxide, and N-aminopropylmorpholine.

Row | Structure (SMILES) | result of accelerated storage test with derivative in lieu of morpholine
5 | NCCCN1CCOCC1 [N-aminopropylmorpholine] | satisfactory results
6 | CCN1CCOCC1 [N-ethylmorpholine] | satisfactory results
7 | C[N+]1([O-])CCOCC1 [N-methylmorpholine oxide] | satisfactory results
8 | CN1CCOCC1 [N-methylmorpholine] | satisfactory results
